Measurements published in publication PMC3815946 (Microbial biotechnology, 2009).
Like-named read-outs stand apart in the source and are kept apart here.

How the values were obtained:
3A6 [1] = experiment: steady-state hydrolysis kinetics, Hanes-Woolf plot; type: biochemical; details: read-out: 3A6 / Km; 100 mM Tris-sulfate, pH 8.5, 40 °C, enzyme 0-12 nM
3A6 [2] = experiment: steady-state hydrolysis kinetics, Hanes-Woolf plot; type: biochemical; details: read-out: 3A6I / Km; 100 mM Tris-sulfate, pH 8.5, 40 °C, enzyme 0-12 nM

SMILES	Km (3A6 [1]) [µM]	Km (3A6 [2]) [µM]
COc1cc(/C=C/C(=O)OC[C@@H]2O[C@@H](O[C@@H]3[C@@H](O)[C@H](O[C@@H]4COC(O)[C@H](O)[C@H]4O)OC[C@H]3O)[C@H](O)[C@H]2O)ccc1O (stereo partly drawn) [FAXX, (5‐O‐(trans‐feruloyl)‐α‐L‐arabinofuranosyl)‐(1,3)‐β‐D‐xylopyranosyl‐(1,4)‐D‐xylopyranose]	1960 ± 370	–
COC(=O)/C=C/c1ccc(O)c(OC)c1 [Methyl ferulate]	2340 ± 370	–
COC(=O)/C=C/c1ccc(O)cc1 [Methyl p-coumarate]	1550 ± 110	–
COC(=O)/C=C/c1cc(OC)c(O)c(OC)c1 [Methyl sinapinate]	400 ± 80	–
COc1cc(/C=C/C(=O)OC[C@@H]2O[C@@H](Oc3ccc([N+](=O)[O-])cc3)[C@H](O)[C@H]2O)ccc1O [Nph-5-Fe-Araf, p‐nitrophenyl 5‐O‐trans‐feruloyl‐α‐L‐arabinofuranoside]	970 ± 30	–

Second part, the compound after the results:

Km (3A6 [1]) [µM]	Km (3A6 [2]) [µM]	SMILES
180 ± 90	3480 ± 210	CC(=O)Oc1ccc([N+](=O)[O-])cc1 [p-Nitrophenyl acetate]
240 ± 20	890 ± 70	CCCC(=O)Oc1ccc([N+](=O)[O-])cc1 [p-Nitrophenyl butyrate]
1530 ± 90	–	CCCCCC(=O)Oc1ccc([N+](=O)[O-])cc1 [p-Nitrophenyl hexanoate]
150 ± 90	–	CCC(=O)Oc1ccc([N+](=O)[O-])cc1 [p-Nitrophenyl propionate]
